# Test results taken from patent US12263172B2, “Toll-like receptor agonists for use in the treatment of hepatitis b” (priority 2019, dated 2025).
# Several values for one entry are separate records, joined by “and”; a condition that tells them apart may be missing. Identical values can stand only once.
# Assay: Phase 1 single-ascending dose (Part 1): safety and tolerability in healthy adults
# Assay type: in vivo, human
# Procedure: This ongoing trial is a Phase 1 randomized, double-blind, placebo-controlled study in male and female healthy adult volunteers aged 18-55 years. All volunteers provided written, informed consent.
# All volunteers were followed up for 4 weeks and safety and tolerability were continuously assessed throughout the study. All adverse events (AEs) were recorded from the time of consent to the completion visit and were graded using the DAIDS toxicity grading scale. Volunteers also underwent physical examinations, electrocardiograms, vital sign checks and clinical laboratory parameters (chemistry, haematology, urinalysis).
compound,measurement,setting,value
CCCCOc1nc(N)c2[nH]cc(Cc3ccc(CN4CCCC4)cc3)c2n1 [Compound 4],"lab toxicity: Cholesterol (mmol/L), upwards, Grade 2",single dose 0.6 mg fasted,0 n (%)
same,"lab toxicity: Creatine kinase (U/L), upwards, Grade 1",single dose 0.6 mg fasted,0 n (%)
same,"lab toxicity: Creatine kinase (U/L), upwards, Grade 2",single dose 0.6 mg fasted,1 (16.7%) n (%)
same,"lab toxicity: Creatine kinase (U/L), upwards, Grade 4",single dose 0.6 mg fasted,0 n (%)
same,"lab toxicity: Glucose (mmol/L), upwards, Grade 1",single dose 0.6 mg fasted,1 (16.7%) n (%)
same,"lab toxicity: Glucose (mmol/L), upwards, Grade 2",single dose 0.6 mg fasted,1 (16.7%) n (%)
same,"lab toxicity: LDL cholesterol (mmol/L, calculated), upwards, Grade 1",single dose 0.6 mg fasted,2 (33.3%) n (%)
same,"lab toxicity: LDL cholesterol (mmol/L, calculated), upwards, Grade 2",single dose 0.6 mg fasted,1 (16.7%) n (%)
same,"lab toxicity: LDL cholesterol (mmol/L, calculated), upwards, Grade 3",single dose 0.6 mg fasted,0 n (%)
same,"lab toxicity: Lymphocytes (giga/L), downwards, Grade 2",single dose 0.6 mg fasted,0 n (%)
same,"lab toxicity: Lymphocytes (giga/L), downwards, Grade 4",single dose 0.6 mg fasted,0 n (%)
same,"lab toxicity: Neutrophils, segmented (giga/L), downwards, Grade 1",single dose 0.6 mg fasted,0 n (%)
same,"lab toxicity: Neutrophils, segmented (giga/L), downwards, Grade 2",single dose 0.6 mg fasted,0 n (%)
same,"lab toxicity: Platelets (giga/L), downwards, Grade 1",single dose 0.6 mg fasted,0 n (%)
same,"lab toxicity: Sodium (mmol/L), upwards, Grade 1",single dose 0.6 mg fasted,2 (33.3%) n (%)
same,"lab toxicity: Sodium (mmol/L), upwards, Grade 2",single dose 0.6 mg fasted,1 (16.7%) n (%)
same,"lab toxicity: Triglycerides (mmol/L), upwards, Grade 1",single dose 0.6 mg fasted,4 (66.7%) n (%)
same,"lab toxicity: Triglycerides (mmol/L), upwards, Grade 2",single dose 0.6 mg fasted,0 n (%)
same,"lab toxicity: Triglycerides (mmol/L), upwards, Grade 3",single dose 0.6 mg fasted,0 n (%)
same,"lab toxicity: Urate (μmol/L), upwards, Grade 1",single dose 0.6 mg fasted,0 n (%)
same,subjects with at least one AE,single dose 0.6 mg fasted,3 (50.0%) n (%)
same,subjects with at least one AE for which any study drug or study was permanently stopped,single dose 0.6 mg fasted,0 n (%)
same,subjects with at least one AE for which any study drug or study was temporarily stopped,single dose 0.6 mg fasted,0 n (%)
same,subjects with at least one AE possibly related to any study drug,single dose 0.6 mg fasted,1 (16.7%) n (%)
same,"subjects with at least one AE possibly, probably or very likely related to any study drug",single dose 0.6 mg fasted,1 (16.7%) n (%)
same,subjects with at least one AE probably related to any study drug,single dose 0.6 mg fasted,0 n (%)
same,subjects with at least one AE very likely related to any study drug,single dose 0.6 mg fasted,0 n (%)
same,subjects with at least one SAE,single dose 0.6 mg fasted,0 n (%)
same,subjects with at least one fatal AE,single dose 0.6 mg fasted,0 n (%)
same,subjects with at least one grade 1 AE,single dose 0.6 mg fasted,3 (50.0%) n (%)
same,subjects with at least one grade 2 AE,single dose 0.6 mg fasted,0 n (%)
same,subjects with at least one grade 3 or 4 AE,single dose 0.6 mg fasted,0 n (%)
same,treatment-related AE: Any AE,single dose 0.6 mg fasted,1 (16.7%) n (%)
same,treatment-related AE: Chills,single dose 0.6 mg fasted,0 n (%)
same,treatment-related AE: Dizziness,single dose 0.6 mg fasted,0 n (%)
same,treatment-related AE: General disorders and administration site conditions,single dose 0.6 mg fasted,0 n (%)
same,treatment-related AE: Headache,single dose 0.6 mg fasted,0 n (%)
same,treatment-related AE: Hypertension,single dose 0.6 mg fasted,0 n (%)
same,treatment-related AE: Myalgia,single dose 0.6 mg fasted,0 n (%)
same,treatment-related AE: Nervous system disorders,single dose 0.6 mg fasted,0 n (%)
same,treatment-related AE: Oropharyngeal pain,single dose 0.6 mg fasted,0 n (%)
same,treatment-related AE: Pyrexia,single dose 0.6 mg fasted,0 n (%)
same,"treatment-related AE: Respiratory, thoracic and mediastinal disorders",single dose 0.6 mg fasted,1 (16.7%) n (%)
same,treatment-related AE: Vascular disorder,single dose 0.6 mg fasted,0 n (%)
same,vital signs: Respiratory rate (brpm) Grade 1,single dose 0.6 mg fasted,3 (50.0%) n (%)
same,vital signs: Respiratory rate (brpm) Grade 2,single dose 0.6 mg fasted,0 n (%)
same,vital signs: SaO2 (%) 90% to <95%,single dose 0.6 mg fasted,0 n (%)
same,vital signs: SaO2 (%) 95% to <98%,single dose 0.6 mg fasted,4 (66.7%) n (%)
same,vital signs: Standing DBP (mmHg) Grade 1,single dose 0.6 mg fasted,0 n (%)
same,vital signs: Standing DBP (mmHg) Grade 2,single dose 0.6 mg fasted,0 n (%)
same,vital signs: Standing DBP (mmHg) Grade 3,single dose 0.6 mg fasted,0 n (%)
same,vital signs: Standing DBP (mmHg) Low,single dose 0.6 mg fasted,0 n (%)
same,vital signs: Standing SBP (mmHg) Grade 1,single dose 0.6 mg fasted,1 (16.7%) n (%)
same,vital signs: Standing SBP (mmHg) Low,single dose 0.6 mg fasted,0 n (%)
same,vital signs: Standing pulse (bpm) High,single dose 0.6 mg fasted,0 n (%)
same,vital signs: Standing pulse (bpm) Low,single dose 0.6 mg fasted,0 n (%)
same,vital signs: Supine DBP (mmHg) Grade 1,single dose 0.6 mg fasted,0 n (%)
same,vital signs: Supine DBP (mmHg) Low,single dose 0.6 mg fasted,1 (16.7%) n (%)
same,vital signs: Supine SBP (mmHg) Grade 1,single dose 0.6 mg fasted,1 (16.7%) n (%)
same,vital signs: Supine SBP (mmHg) Grade 2,single dose 0.6 mg fasted,0 n (%)
same,vital signs: Supine SBP (mmHg) Low,single dose 0.6 mg fasted,0 n (%)
same,vital signs: Supine pulse (bpm) Low,single dose 0.6 mg fasted,1 (16.7%) n (%)
same,↑ AST Grade 3 (laboratory abnormality),single dose 0.6 mg fasted,0 n (%)
same,↑ Amylase Grade 2 (laboratory abnormality),single dose 0.6 mg fasted,0 n (%)
same,↑ Cholesterol Grade 2 (laboratory abnormality),single dose 0.6 mg fasted,0 n (%)
same,↑ Creatine kinase Grade 2 (laboratory abnormality),single dose 0.6 mg fasted,1 (17) n (%)
same,↑ Creatine kinase Grade 4 (laboratory abnormality),single dose 0.6 mg fasted,0 n (%)
same,↑ Glucose Grade 2 (laboratory abnormality),single dose 0.6 mg fasted,1 (17) n (%)
same,↑ LDL cholesterol Grade 2 (laboratory abnormality),single dose 0.6 mg fasted,1 (17) n (%)
same,↑ LDL cholesterol Grade 3 (laboratory abnormality),single dose 0.6 mg fasted,0 n (%)
same,↑ Lipase Grade 2 (laboratory abnormality),single dose 0.6 mg fasted,0 n (%)
same,↑ Pancreatic amylase Grade 2 (laboratory abnormality),single dose 0.6 mg fasted,0 n (%)
same,↑ Potassium Grade 2 (laboratory abnormality),single dose 0.6 mg fasted,0 n (%)
same,↑ Sodium Grade 2 (laboratory abnormality),single dose 0.6 mg fasted,1 (17) n (%)
same,↑ Triglycerides Grade 2 (laboratory abnormality),single dose 0.6 mg fasted,0 n (%)
same,↑ Triglycerides Grade 3 (laboratory abnormality),single dose 0.6 mg fasted,0 n (%)
same,↓ Bicarbonate Grade 2 (laboratory abnormality),single dose 0.6 mg fasted,0 n (%)
same,↓ GFR Grade 2 (laboratory abnormality),single dose 0.6 mg fasted,0 n (%)
same,↓ Lymphocytes Grade 2 (laboratory abnormality),single dose 0.6 mg fasted,0 n (%)
same,↓ Lymphocytes Grade 4 (laboratory abnormality),single dose 0.6 mg fasted,0 n (%)
same,↓ Neutrophils Grade 2 (laboratory abnormality),single dose 0.6 mg fasted,0 n (%)
same,↓ Phosphate Grade 2 (laboratory abnormality),single dose 0.6 mg fasted,0 n (%)
same,subjects with headache (AE),single dose 1.25 mg,4 (50.0%) n (%)
same,subjects with myalgia (AE),single dose 1.25 mg,3 (37.5%) n (%)
same,subjects with pyrexia (AE),single dose 1.25 mg,3 (37.5%) n (%)
same,Any AE (treatment-emergent),single dose 1.25 mg fasted,8 (100) n (%)
same,Back pain Grade 1 (treatment-emergent AE),single dose 1.25 mg fasted,1 (13) n (%)
same,Chills Grade 1 (treatment-emergent AE),single dose 1.25 mg fasted,0 n (%)
same,Contact dermatitis Grade 1 (treatment-emergent AE),single dose 1.25 mg fasted,0 n (%)
same,Dizziness Grade 1 (treatment-emergent AE),single dose 1.25 mg fasted,0 n (%)
same,ECG actual value: Heart rate (bpm) Low,single dose 1.25 mg fasted,0 n (%)
same,ECG actual value: QRS (ms) High,single dose 1.25 mg fasted,1 (12.5%) n (%)
same,ECG actual value: QTcB (ms) ]450; 480],single dose 1.25 mg fasted,1 (12.5%) n (%)
same,ECG actual value: QTcF (ms) ]450; 480],single dose 1.25 mg fasted,1 (12.5%) n (%)
same,ECG change from reference: QTcB (ms) [30; 60],single dose 1.25 mg fasted,3 (37.5%) n (%) and 3 (37.5%)^a n (%)
same,ECG change from reference: QTcF (ms) [30; 60],single dose 1.25 mg fasted,1 (12.5%) n (%) and 1 (12.5%)^a n (%)
same,Headache Grade 1 (treatment-emergent AE),single dose 1.25 mg fasted,4 (50) n (%)
same,Headache Grade 2 (treatment-emergent AE),single dose 1.25 mg fasted,0 n (%)
same,Hypertension Grade 1 (treatment-emergent AE),single dose 1.25 mg fasted,0 n (%)
same,Hypertension Grade 2 (treatment-emergent AE),single dose 1.25 mg fasted,0 n (%)
same,Myalgia Grade 1 (treatment-emergent AE),single dose 1.25 mg fasted,3 (38) n (%)
same,Oropharyngeal pain Grade 1 (treatment-emergent AE),single dose 1.25 mg fasted,2 (25) n (%)
same,Pyrexia Grade 1 (treatment-emergent AE),single dose 1.25 mg fasted,2 (25) n (%)
same,Pyrexia Grade 2 (treatment-emergent AE),single dose 1.25 mg fasted,1 (13) n (%)
same,URTI Grade 1 (treatment-emergent AE),single dose 1.25 mg fasted,2 (25) n (%)
same,"lab toxicity: Amylase (U/L), upwards, Grade 1",single dose 1.25 mg fasted,1 (12.5%) n (%)
same,"lab toxicity: Amylase (U/L), upwards, Grade 2",single dose 1.25 mg fasted,0 n (%)
same,"lab toxicity: Cholesterol (mmol/L), upwards, Grade 1",single dose 1.25 mg fasted,1 (12.5%) n (%)
same,"lab toxicity: Cholesterol (mmol/L), upwards, Grade 2",single dose 1.25 mg fasted,0 n (%)
same,"lab toxicity: Creatine kinase (U/L), upwards, Grade 1",single dose 1.25 mg fasted,0 n (%)
same,"lab toxicity: Creatine kinase (U/L), upwards, Grade 2",single dose 1.25 mg fasted,0 n (%)
same,"lab toxicity: Creatine kinase (U/L), upwards, Grade 4",single dose 1.25 mg fasted,0 n (%)
same,"lab toxicity: Glucose (mmol/L), upwards, Grade 1",single dose 1.25 mg fasted,3 (37.5%) n (%)
same,"lab toxicity: Glucose (mmol/L), upwards, Grade 2",single dose 1.25 mg fasted,1 (12.5%) n (%)
same,"lab toxicity: LDL cholesterol (mmol/L, calculated), upwards, Grade 1",single dose 1.25 mg fasted,0 n (%)
same,"lab toxicity: LDL cholesterol (mmol/L, calculated), upwards, Grade 2",single dose 1.25 mg fasted,0 n (%)
same,"lab toxicity: LDL cholesterol (mmol/L, calculated), upwards, Grade 3",single dose 1.25 mg fasted,1 (12.5%) n (%)
same,"lab toxicity: Lymphocytes (giga/L), downwards, Grade 2",single dose 1.25 mg fasted,1 (12.5%) n (%)
same,"lab toxicity: Lymphocytes (giga/L), downwards, Grade 4",single dose 1.25 mg fasted,0 n (%)
same,"lab toxicity: Neutrophils, segmented (giga/L), downwards, Grade 1",single dose 1.25 mg fasted,2 (25.0%) n (%)
same,"lab toxicity: Neutrophils, segmented (giga/L), downwards, Grade 2",single dose 1.25 mg fasted,0 n (%)
same,"lab toxicity: Platelets (giga/L), downwards, Grade 1",single dose 1.25 mg fasted,1 (12.5%) n (%)
same,"lab toxicity: Sodium (mmol/L), upwards, Grade 1",single dose 1.25 mg fasted,2 (25.0%) n (%)
same,"lab toxicity: Sodium (mmol/L), upwards, Grade 2",single dose 1.25 mg fasted,1 (12.5%) n (%)
same,"lab toxicity: Triglycerides (mmol/L), upwards, Grade 1",single dose 1.25 mg fasted,3 (37.5%) n (%)
same,"lab toxicity: Triglycerides (mmol/L), upwards, Grade 2",single dose 1.25 mg fasted,4 (50.0%) n (%)
same,"lab toxicity: Triglycerides (mmol/L), upwards, Grade 3",single dose 1.25 mg fasted,0 n (%)
same,"lab toxicity: Urate (μmol/L), upwards, Grade 1",single dose 1.25 mg fasted,0 n (%)
same,subjects with Grade 2 treatment-related AEs (pyrexia),single dose 1.25 mg fasted,1 (12.5%) n (%)
same,subjects with at least one AE,single dose 1.25 mg fasted,8 (100%) n (%)
same,subjects with at least one AE for which any study drug or study was permanently stopped,single dose 1.25 mg fasted,1 (12.5%) n (%)
same,subjects with at least one AE for which any study drug or study was temporarily stopped,single dose 1.25 mg fasted,0 n (%)
same,subjects with at least one AE possibly related to any study drug,single dose 1.25 mg fasted,5 (62.5%) n (%)
same,"subjects with at least one AE possibly, probably or very likely related to any study drug",single dose 1.25 mg fasted,6 (75.0%) n (%)
same,subjects with at least one AE probably related to any study drug,single dose 1.25 mg fasted,3 (37.5%) n (%)
same,subjects with at least one AE very likely related to any study drug,single dose 1.25 mg fasted,0 n (%)
